In ChEMBL document CHEMBL1150229, “Serrulatane diterpenes with antimycobacterial activity isolated from the West Indian sea whip Pseudopterogorgia elisabethae” (2001):
Calls of active or inactive are those of the source. The calls are words filed in the database; no cut-off is given here.

Key:
[1] = test system: Mycobacterium tuberculosis; assay: Antitubercular activity against Mycobacterium tuberculosis H37Rv at 12.5 ug/ml; assay type: functional
NCI60 = assay: Cytotoxicity against human NCI60 cells; assay type: functional, cell-based
[2] = test system: Mycobacterium tuberculosis; assay: Antitubercular activity against Mycobacterium tuberculosis H37Rv at 6.25 ug/ml; assay type: functional

SMILES | Activity [1] | Activity (NCI60) | Activity [2]
CC(C)=CCC[C@H](C)[C@H]1CC[C@H](C)c2ccc(C)cc21 [EROGORGIAENE] | 96% |  | 
CC(C)=C[C@@H]1C[C@H](C)[C@H]2CC[C@H](C)c3c2c1c(C)c1ncoc31 [PSEUDOPTEROXAZOLE] | 97% |  | 
CC(C)=CCC[C@H](C)[C@H]1CC[C@H](C)c2c1cc(C)c1ncoc21 | 66% |  | 
CC(C)=CCC[C@H](C)[C@H]1CC[C@H](C)c2cc(O)c(C)cc21 |  | inactive | 77%
